Entries after “also recorded” stand apart in the source; their conditions may differ.

For data set [1], the system named is THLE-5B cells. The data set is described as follows: Anchorage-independent transformation (over-agar) assay in THLE-5B cells. It counts as cell-based, human. The conditions noted are these: 10 ng/ml EGF, inhibitor 0.01 μM to 1.0 μM, colonies counted after 14 days. As to the method: Cells and Culture Conditions. The normal human liver epithelial cell line, THLE-5B, was kindly provided by Curtis Harris (NCI, National Institutes of Health, Bethesda, Md.). THLE-5B cells were propagated in DMEM/F-12 (1:1; Invitrogen, Carlsbad, Calif.) with 10% fetal bovine serum (MediaTech CellGro, Herndon, Va.), that was supplemented with 100 units/ml penicillin, […] streptomycin (both from Invitrogen), 10 μg/ml insulin, 10 μg/ml transferrin and 10 ng/ml selenium (ITS; Lonza, Walkersville, Md.). Primary human hepatocytes were isolated as described before and cultured in HMM media (Lonza). Cells were maintained at 37° C. in a humidified incubator with 5% CO2 in air.
Chemicals. Stock solutions of AG1478 (Invitrogen), erlotinib (Tarceva™; Genentech, South San Francisco, Calif.) and gefitinib (Iressa™; AstraZeneca, Wilmington, Del.) were prepared in DMSO and stored at −20° C. EGF (Sigma, St. Louis, Mo.) stock solution was prepared in 10 mM acetic acid and diluted in PBS.
Anchorage-Independent Transformation Assay. Because cells suspended in soft agar cannot be easily recovered, the inventors used the previously described over-agar assay which allows for the analysis of molecular events associated with tumor promoter-induced cell transformation under anchorage-independent conditions. Briefly, 1×10^4 THLE-5B cells or isolated human hepatocytes were plated onto 0.5% BME agar containing the indicated concentrations of EGF and inhibitors. The plates were cultured for 14 days, after which colonies of transformed cells were counted using a microscope. The results represent one experiment and are presented as the mean±standard deviation of colony counts made by three separate investigators. The experiments were repeated twice to ensure qualitatively similar results.

For data set [2], the system named is THLE-5B cells. The experiment in a line: Cell growth (MTT) assay in THLE-5B cells. It is filed as cell-based, human. The conditions noted are these: inhibitor 0.01-1 μM; 72 h. On the procedure: Cell Growth Assay. Briefly, THLE-5B cells were plated in triplicate at a density of 4×10^4 cells/ml in a 24-well plate. After 24 h, cells were washed once with PBS and medium containing inhibitors at the indicated concentrations or vehicle control was added. After 72 h, the effects of each inhibitor on growth of the cells was measured by colorimetric 3-(4,5-dimethylthiazol-2-yl)-2,5-diphenyltetrazolium bromide (MTT; Sigma) assay. The absorbance at 562 nm was measured using a spectrophotometric plate reader (Emax; Molecular Devices) and the experiment was repeated twice to ensure qualitatively similar results for each inhibitor.

For data set [3], the system named is HCC nodules. The settings on record: rat, DEN-induced cirrhosis; treatment during weeks 12-18; cited from earlier work.

Regarding `C#Cc1cccc(Nc2ncnc3cc(OCCOC)c(OCCOC)cc23)c1` [Erlotinib], the “EGF mediated anchorage-independent transformation of THLE-5B cells” value in data set [1] is “prevents EGF mediated anchorage-independent transformation; also recorded: inhibited”. The “cytotoxicity to THLE-5B cells as determined by MTT” value (“cytotoxicity to THLE-5B cells” below) in data set [2] is “not cytotoxic”.

As to `COc1cc2ncnc(Nc3cccc(Cl)c3)c2cc1OC` [AG1478, 4-(3-Chloroanillino)-6,7-dimethoxyquinazoline], the “EGF mediated anchorage-independent transformation of THLE-5B cells” value in data set [1] is “prevents EGF mediated anchorage-independent transformation; also recorded: inhibited”. In addition, the “cytotoxicity to THLE-5B cells” value in data set [2] is given as “not cytotoxic”.

Take `COc1cc2ncnc(Nc3ccc(F)c(Cl)c3)c2cc1OCCCN1CCOCC1` [Gefitinib]: the results for the “EGF mediated anchorage-independent transformation of THLE-5B cells” value in data set [1] and in data set [1] (listed as Gefitnib) were “inhibited” and “prevents EGF mediated anchorage-independent transformation”, respectively. Besides, the “formation of HCC nodules” value in data set [3] is reported as “significantly reduced the formation of HCC nodules; also recorded: significantly reduced the formation of hepatocellular carcinoma nodules”. Further, the “cytotoxicity to THLE-5B cells” value in data set [2] is recorded as “not cytotoxic”.

The record behind these values is US8323896B2, “Epidermal growth factor (EGF) expression and/or polymorphisms thereof for predicting the risk of developing cancer” (The General Hospital Corporation, priority 2007, dated 2012).
